The results in this text go back to the Deep4Chem optical property database.

Several values for one entry are separate records, joined by “and”; a condition that tells them apart may be missing. Identical values can stand only once.

The nature of this data set: solvent given as SMILES.

`F[B-]1(F)n2cccc2C(c2c3ccccc3cc3ccccc23)=C2C=CC=[N+]21` displayed an absorption maximum (in CC#N) of 502 nm; an absorption maximum (in CCCCCC) of 505 nm; an absorption maximum (in CCO) of 503 nm; an absorption maximum (in CN(C)C=O) of 506 nm; an absorption maximum (in Cc1ccccc1) of 508 nm; an absorption maximum (in ClCCl) of 506 nm.
`Cc1ccc(C2=CC(c3ccc(C)cc3)=[N+]3C2=Nc2c(-c4ccc(C)cc4)cc(-c4ccc(C)cc4)n2[B-]3(F)F)cc1` showed an absorption maximum (in ClC(Cl)Cl) of 652 nm.
Consider `COc1ccc(N(c2ccc(OC)cc2)c2cc3ccc4cc(B(c5c(C)cc(C)cc5C)c5c(C)cc(C)cc5C)cc5ccc(c2)c3c45)cc1`, for which the absorption maximum runs as follows: (in C1CCOC1) 399 nm; (in CC(C)=O) 395 nm; (in CCCCCC) 398 nm; (in Cc1ccccc1) 402 nm; (in ClC(Cl)Cl) 399 nm; (in ClCCl) 397 nm.
Compound `N#Cc1c(N2CCCC2)cc(-c2ccccc2)c2c1-c1cccc3cccc-2c13` registered an absorption maximum (in O) of 428 nm.
Consider `CCOC(=O)CSc1nc(-c2ccc(OC)cc2)c(C)c(C#N)c1C#N`, for which the absorption maximum (in c1ccccc1) is listed as 374 nm.
`CN(C)c1ccc(/C=C/c2ccncn2)cc1`: the absorption maximum (in ClCCl) was 393 nm.
With `COC(=O)/C=C/c1sc(-c2ccc(N(C)C)cc2)c(-c2ccc(OC)cc2)c1O`, for the setting “in CC#N”, the absorption maximum came out at 451 nm.
The compound `CCc1cc(CC)cc(-n2c3ccccc3c3cc4c(cc32)c2ccccc2n4-c2cc(CC)cc(CC)c2)c1` returned an absorption maximum (in ClC(Cl)Cl) of 410 nm.
Consider `COc1ccc(/C=C/C(=O)c2c(O)cc(C)oc2=O)cc1`, for which the absorption maximum was found to be 380 nm (in CC#N) and 384 nm (in ClCCl).
The matching figures for `Cc1cc(O)c(C(=O)/C=C/c2ccccc2O)c(=O)o1`: 359 nm and 360 nm.
In turn, `CN1C(=CC2=C([O-])C(=CC3=[N+](C)c4ccccc4C3(C)C)C2=C(C#N)C#N)C(C)(C)c2ccccc21` gave an absorption maximum (in ClC(Cl)Cl) of 684 nm.
Still for that read-out and setting: the value for `c1ccc2c(-c3ccc(-n4c5ccccc5c5ccccc54)cc3)c3c(nc2c1)-c1cc2c(cc1CC3)-c1nc3ccccc3c(-c3ccc(-n4c5ccccc5c5ccccc54)cc3)c1CC2` was 377 nm.
`O=[N+]([O-])c1ccc(/C2=C3N=C(C(c4ccccc4)=C/3c3ccccc3)/C(c3ccc([N+](=O)[O-])cc3)=c3\[nH]/c(c(-c4ccccc4)c3-c3ccccc3)=C(/c3ccc([N+](=O)[O-])cc3)C3=N/C(=C(/c4ccc([N+](=O)[O-])cc4)c4[nH]c2c(-c2ccccc2)c4-c2ccccc2)C(c2ccccc2)=C3c2ccccc2)cc1` returned an absorption maximum (in ClCCl) of 711 nm.
For the compound `N#Cc1cc2ccc(O)cc2oc1=O`, the absorption maximum runs as follows: (in C1CCCCC1) 361 nm; (in C1CCOC1) 355 nm; (in CC#N) 352 nm; (in CCOC(C)=O) 356 nm; (in CS(C)=O) 351 nm; (in ClC(Cl)Cl) 359 nm. The compound also came in with an absorption maximum (in O) of 355 nm.
With `CC1(C)CC(=O)c2c(F)c(F)c(F)c(F)c2N1`, the absorption maximum (in CC#N) is on record as 360 nm.
Turning to `C=CCOc1nnc(OCCC(F)(F)C(F)(F)C(F)(F)C(F)(F)C(F)(F)C(F)(F)C(F)(F)C(F)(F)F)nn1`, the absorption maximum runs as follows: (in ClCCl) 526 nm; (in OCC(F)(F)F) 512 nm.
For the setting “in Cc1ccccc1”, `N#Cc1c(-n2c3ccc(I)cc3c3cc(I)ccc32)c(-n2c3ccc(I)cc3c3cc(I)ccc32)c(C#N)c(-n2c3ccc(I)cc3c3cc(I)ccc32)c1-n1c2ccc(I)cc2c2cc(I)ccc21` yielded an absorption maximum of 361 nm.
`CC(C)[Si](C#Cc1ccc(-c2c3cccc4c5cccc6c(-c7ccc(C#C[Si](C(C)C)(C(C)C)C(C)C)cc7)c7cccc8c9cccc2c9c(c34)c(c65)c78)cc1)(C(C)C)C(C)C`: where the note is “in Cc1ccccc1”, the absorption maximum came out at 727 nm.
`C(#Cc1ncc(-c2ccccc2)o1)c1cccnc1`: the absorption maximum (in ClCCl) was determined as 330 nm.
In the case of `N#Cc1c(N2CCCCC2)cc(-c2cccc3ccccc23)c2c1C(=O)c1ccccc1-2`, the absorption maximum (in C1CCOC1) is listed as 344 nm.
Turning to `c1ccc(-[n+]2c3ccc4cccc5c6cccc7c8cccc9ccc2c(c98)c(c67)c3c45)cc1`, for the setting “in ClCCl”, the absorption maximum came out at 512 nm.
On the same count and under the same terms, as for `N#Cc1ccc(/C=C/c2ncc(-c3ccccc3)o2)cc1`, the figure is 360 nm.
`COc1cc2c(cc1-c1ccccc1)Cc1c3c(c4c(c1-2)-c1cc(OC)c(-c2ccccc2)cc1C4)C(=O)N(CCC(C)C)C3=O` came in with an absorption maximum (in C1CCOC1) of 405 nm; an absorption maximum (in CC#N) of 406 nm; an absorption maximum (in CC(C)=O) of 407 nm; an absorption maximum (in CCOC(C)=O) of 405 nm; an absorption maximum (in CS(C)=O) of 413 nm; an absorption maximum (in Cc1ccccc1) of 405 nm. Besides, the absorption maximum was 414 nm (in ClC(Cl)Cl) and 411 nm (in ClCCl).
In turn, `N#Cc1ccc(/C=C2\N=C(c3ccccc3)NC2=O)cc1` yielded an absorption maximum (in C1COCCO1) of 393 nm.
For `c1ccc(C2=Nc3cccc4[n+]3[B-](c3ccccc3)(N2)NC(c2ccccc2)=N4)cc1`, the absorption maximum (in ClCCl) is given as 440 nm.
Take `COC(=O)[C@H](Cc1ccccc1)Nc1c(C(C)=O)c(=O)oc2cc(N(C)C)ccc12`: the absorption maximum (in ClCCl) is 373 nm.
On the same count and under the same terms, as for `CCCN1c2ccccc2Sc2cc(C3=C4C=CC=[N+]4[B-](F)(F)n4cccc43)ccc21`, the figure is 499 nm; as for `CCCCCCOc1cc(C=C2C(=C(C#N)C#N)c3ccccc3C2=C(C#N)C#N)c(OCCCCCC)cc1C=C1C(=C(C#N)C#N)c2ccccc2C1=C(C#N)C#N`, 542 nm.
Still for that read-out and setting: as for `CCCCN1C(=O)C2=C(c3ccc(-c4ccccc4)cc3)[N-]C(=O)C2=C1c1ccc(-c2ccccc2)cc1`, the figure is 585 nm.
Turning to `CCCCc1ccc(-n2c3c4cc(F)ccc4nnc3c3c2c2nnc4ccc(F)cc4c2n3-c2ccc(CCCC)cc2)cc1`, where the note is “in Cc1ccccc1”, the absorption maximum was 315 nm.
Regarding `Cc1ccc(C2=C(/C=C/C(=O)OC3CC[C@@]4(C)C(=CC[C@H]5[C@@H]6CC[C@H]([C@H](C)CCCC(C)C)[C@@]6(C)CC[C@@H]54)C3)C(c3ccc(C)cc3)=[N+]3C2=Nc2c(-c4ccc(C)cc4)c(Br)c(-c4ccc(C)cc4)n2[B-]3(F)F)cc1` (some centres not stated), the absorption maximum (in ClC(Cl)Cl) worked out at 662 nm.
For the setting “in ClCCl”, `COc1ccc2cc(-c3cc(-c4ccccc4)c4n3[B-](F)(F)[N+]3=C5C=NC=CN5[B-](F)(F)[N+]3=C4)ccc2c1` showed an absorption maximum of 536 nm.
Under “in ClC(Cl)Cl”, `Cc1ccc(N(c2ccc(C)cc2)c2ccc(-c3ccc(C=C(C#N)C#N)o3)cc2)cc1` returned an absorption maximum of 521 nm.
Turning to `COc1ccc(N(c2ccc(OC)cc2)c2ccc3c(c2)C2(c4cc(N(c5ccc(OC)cc5)c5ccc(OC)cc5)ccc4C=C3)c3ccccc3-c3ccccc32)cc1`, the absorption maximum (in ClCCl) worked out at 414 nm.
`O=S(=O)([O-])c1cc(S(=O)(=O)Cl)ccc1C1=c2cc3c4c(c2Oc2c1cc1c5c2CCCN5CCC1)CCC[N+]=4CCC3`: for the setting “in O”, the absorption maximum turned out to be 589 nm.
The compound `O=Cc1ccc2c(c1)c1ccccc1n2-c1ccc(-c2ccc(-n3c4ccccc4c4cc(C=O)ccc43)cc2)cc1` showed an absorption maximum (in ClCCl) of 329 nm.
Turning to `O=c1oc2ccccc2c2c1c(=O)oc1cc(O)c3ccccc3c12`, the absorption maximum runs as follows: (in CS(C)=O) 441 nm; (in ClCCl) 442 nm.
Under “in CO”, `CC1=CC(Br)=CN2C[n+]3cc(Br)cc(C)c3N=C12` displayed an absorption maximum of 436 nm.
Turning to `O=S(=O)(c1ccc(N2c3ccccc3[Si](c3ccccc3)(c3ccccc3)c3ccccc32)cc1)c1ccc(N2c3ccccc3[Si](c3ccccc3)(c3ccccc3)c3ccccc32)cc1`, the absorption maximum (in Cc1ccccc1) is recorded as 328 nm.
`CC1(C)C(/C=C/C2=C(c3ccc(C(=O)O)cc3)C(=C/C=C3/N(CCCCS(=O)(=O)[O-])c4ccccc4C3(C)C)/CCC2)=[N+](CCCCS(=O)(=O)[O-])c2ccccc21`: the absorption maximum (in CO) was 765 nm.
Where the note is “in ClCCl”, `O=[N+]([O-])c1ccc(C#Cc2ccc3ccc(C#Cc4ccc([N+](=O)[O-])cc4)cc3c2)cc1` showed an absorption maximum of 347 nm.
On to `C=Cc1cc2ccc(OC)cc2oc1=O`, for which the absorption maximum (in CC#N) is 333 nm.
As to `Cc1nc2c(ccc3c2sc(/C=C/c2ccc(-n4c5ccccc5c5ccccc54)cc2)[n+]3C)s1`, the absorption maximum by setting is: (in CO) 446 nm; (in ClC(Cl)Cl) 488 nm.
Regarding `c1ccc2ccccc2c1`, the absorption maximum (in C1CCCCC1) was 291.46 nm and 286 nm.
Turning to `CCCCN(CCCC)c1ccc2c(c1)C#CC#Cc1cc(N(CCCC)CCCC)ccc1C#Cc1cc(c3cc1C#Cc1ccc(C(F)(F)F)cc1C#CC#Cc1cc(C(F)(F)F)ccc1C#C3)C#C2`, the absorption maximum (in ClCCl) worked out at 466 nm.
Compound `CCCCCCCCCCCCOc1cc2c3c(ccc4c5c(OCCCCCCCCCCCC)cc6c7c(ccc(c1c34)c75)C(=O)N(C1CCCCC1)C6=O)C(=O)N(C1CCCCC1)C2=O` displayed an absorption maximum (in ClC(Cl)Cl) of 570 nm.
`CNc1cc2nc3cc(Cl)c(Cl)cc3nc2cc1NC`: under “in CCO”, the absorption maximum is 442 nm.
As for `c1ccc([B-]2(c3ccccc3)Oc3ccc4ccccc4c3-c3c4ccccc4nc[n+]32)cc1`, the absorption maximum (in Cc1ccccc1) is reported as 451 nm.
`C1=CC2C=c3c(cc4cccc5cc6ccccc6c3c45)C3=c4ccccc4=CC(=C1)C32` (configuration not stated) gave an absorption maximum (in ClCCl) of 592 nm.
As for `Cc1ccc(-n2cccc2)cc1`, the absorption maximum (in CC#N) was found to be 254 nm and the absorption maximum (in CCCCCC) came out at 254 nm.
Take `CC(C)[Si](C#Cc1c2cc3ccccc3cc2c(C#C[Si](C(C)C)(C(C)C)C(C)C)c2nc3ccccc3nc12)(C(C)C)C(C)C`: the absorption maximum is given as 693 nm (in CCCCCC) and 697 nm (in ClCCl).
For the compound `O=C1C=C(Nc2cccc(F)c2)C(=O)c2ccccc21`, the absorption maximum was 440 nm (in CCCCCC) and 459 nm (in CO).
Regarding `CCCCn1c(-c2ccc(-c3nnc(-c4ccc(-c5nc6c7ccccc7c7ccccc7c6n5CCCC)cc4)o3)cc2)nc2c3ccccc3c3ccccc3c21`, for the setting “in ClCCl”, the absorption maximum was 366 nm.
Still for that read-out and setting: the value for `CCc1ccccc1-c1c2ccccc2c(C#Cc2ccccc2)c2cc3ccccc3cc12` was 522 nm; that for `CN(C)c1cc(-c2ccccc2)cc2ccccc12` was 318 nm; that for `CCOC(=O)CCCCCn1c2ccc(N)cc2c(=O)c2cc3c(cc21)c(=O)c1cc(N)ccc1n3CCCCCC(=O)OCC` was 574 nm.
